Assay results: ChEMBL document CHEMBL5042527, “Neochrysosporazines: Precursor-Directed Biosynthesis Defines a Marine-Derived Fungal Natural Product P-Glycoprotein Inhibitory Pharmacophore” (J Med Chem, 2022)

Key:
[1] = Cytotoxicity against human […] cells overexpressing P-glycoprotein measured after 48 hrs by MTT assay; type: functional, cell-based
[2] = Metabolic stability of the compound in human SW620/AD300 cells assessed as production of metabolite -Deacetylchrysosporazine J at 2.5 uM for 2 to 48 hrs; type: ADME, cell-based; conditions: sw620/ad300, 2.5 µM, time 2-48 hrs
[3] = Metabolic stability of the compound in human SW620/AD300 cells assessed as production of metabolite -Deacetylchrysosporazine C at 2.5 uM for 2 to 48 hrs; type: ADME, cell-based; conditions: sw620/ad300, 2.5 µM, time 2-48 hrs
[4] = Metabolic stability of the compound in human SW620/AD300 cells assessed as production of metabolite -Deacetylchrysosporazine B at 2.5 uM for 2 to 48 hrs; type: ADME, cell-based; conditions: sw620/ad300, 2.5 µM, time 2-48 hrs
[5] = Metabolic stability of the compound in human SW620/AD300 cells assessed as production of metabolite -Deacetylchrysosporazine F at 2.5 uM for 2 to 48 hrs; type: ADME, cell-based; conditions: sw620/ad300, 2.5 µM, time 2-48 hrs

Row | SMILES | IC50 [1] [µM] | other results
1 | COc1c2c(cc3c1[C@H](c1ccccc1)[C@H]1C(=O)N4C[C@H](Cc5ccccc5)N(C(C)=O)C[C@@H]4[C@@H]31)OCO2 | > 30 | Stability [2]: Stable
2 | COc1cc(C[C@H]2CN3C(=O)/C(=C/c4ccccc4)[C@H](c4cc(OC)c5c(c4)OCO5)[C@H]3CN2C(C)=O)cc2c1OCO2 | > 30 | –
3 | COc1cc([C@H]2/C(=C\c3ccccc3)C(=O)N3C[C@H](Cc4ccccc4)N(C(C)=O)C[C@H]23)cc2c1OCO2 | > 30 | –
4 | COc1cc([C@@H]2[C@H]3CN(C(C)=O)[C@@H](Cc4ccccc4)CN3C(=O)[C@@]23O[C@H]3c2ccccc2)cc2c1OCO2 | > 30 | –
5 | COc1c2c(cc3c1[C@H](c1ccccc1)[C@@]1(O)C(=O)N4C[C@H](Cc5ccccc5)N(C(C)=O)C[C@@H]4[C@@H]31)OCO2 | > 30 | –
6 | COc1cc(C[C@H]2CN3C(=O)[C@@]4(O[C@H]4c4ccccc4)[C@H](c4cc(OC)c5c(c4)OCO5)[C@H]3CN2C(C)=O)cc2c1OCO2 | > 30 | –
7 | COc1cc([C@H]2c3cccnc3C(=O)N3C[C@@H](C(=O)c4ccccc4)N(C(C)=O)C[C@H]23)cc2c1OCO2 | > 30 | –
8 | COc1cc([C@H]2c3cnccc3C(=O)N3C=CN(C(C)=O)C[C@H]23)cc2c1OCO2 | > 30 | –
9 | COc1cc(C[C@H]2CN(C(C)=O)[C@@H](Cc3ccccc3)CN2C(=O)/C=C/c2ccccc2)cc2c1OCO2 | > 30 | –
10 | COc1c2c(cc3c1[C@H](c1ccccc1)[C@H]1C(=O)N4C[C@H](Cc5ccccc5)NC[C@@H]4[C@@H]31)OCO2 | > 30 | –
11 | COC1=C[C@]2(C[C@H]3CN(C(C)=O)[C@@H](Cc4ccccc4)CN3C2=O)OC1=O | > 30 | –
12 | COc1cc([C@H]2c3ccccc3C(=O)N3C[C@H](Cc4ccccc4)N(C(C)=O)C[C@H]23)cc2c1OCO2 | > 30 | Stability [3]: Stable
13 | COc1cc([C@H]2c3ncccc3C(=O)N3C[C@H](Cc4ccccc4)N(C(C)=O)C[C@H]23)cc2c1OCO2 | > 30 | –
14 | COc1cc(C[C@H]2CN3C(=O)[C@]4(O)[C@@H](c5ccccc5)c5c(cc6c(c5OC)OCO6)[C@@H]4[C@H]3CN2C(C)=O)cc2c1OCO2 | > 30 | –
15 | COc1cc([C@H]2c3cnccc3C(=O)N3C[C@H](C(=O)c4ccccc4)NC[C@H]23)cc2c1OCO2 | > 30 | –
16 | COc1cc(C[C@H]2CN(C(C)=O)[C@@H](Cc3ccccc3)CN2C(=O)c2ccncc2)cc2c1OCO2 | > 30 | –
17 | COc1cc([C@H]2c3ncccc3C(=O)N3C[C@H](C(=O)c4ccccc4)N(C(C)=O)C[C@H]23)cc2c1OCO2 | > 30 | –
18 | COc1cc(/C=C2/C(=O)N3C[C@H](Cc4ccccc4)N(C(C)=O)C[C@@H]3[C@H]2c2cc(OC)c3c(c2)OCO3)ccc1O | > 30 | –
19 | COc1cc([C@H]2c3cnccc3C(=O)N3C[C@@H](C(=O)c4ccccc4)N(C(C)=O)C[C@H]23)cc2c1OCO2 | > 30 | –
20 | CC(=O)N1C[C@H](Cc2ccccc2)N(C(=O)c2ccccc2)C[C@@H]1Cc1ccccc1 | > 30 | –
21 | COc1cc(/C=C2/C(=O)N3C[C@H](Cc4cc(OC)c5c(c4)OCO5)N(C(C)=O)C[C@@H]3[C@H]2c2cc(OC)c3c(c2)OCO3)ccc1O | > 30 | –
22 | COc1cc([C@H]2c3cccnc3C(=O)N3C[C@@H](C(=O)c4ccccc4)NC[C@H]23)cc2c1OCO2 | > 30 | –
23 | COc1cc([C@H]2c3ccccc3C(=O)N3C[C@H](C(=O)c4ccccc4)N(C(C)=O)C[C@H]23)cc2c1OCO2 | > 30 | Stability [4]: Stable
24 | CC(=O)N1C[C@H](Cc2ccccc2)N(C(=O)/C=C/c2ccccc2)C[C@@H]1Cc1ccccc1 | > 30 | –
25 | COc1cc([C@H]2c3ccccc3C(=O)N3C[C@@H](C(=O)c4ccccc4)N(C(C)=O)C[C@H]23)cc(OC)c1O | > 30 | –
26 | COc1cc([C@H]2c3cccnc3C(=O)N3C=CN(C(C)=O)C[C@H]23)cc2c1OCO2 | > 30 | –
27 | COc1cc(C[C@H]2CN(C(C)=O)[C@@H](Cc3ccccc3)CN2C(=O)c2cccnc2)cc2c1OCO2 | > 30 | –

Row | SMILES | IC50 [1] [µM] | other results
28 | COc1cc(C[C@H]2CN3C[C@@H]4[C@@H](c5ccccc5)c5c(cc6c(c5OC)OCO6)[C@@H]4[C@H]3CN2)cc2c1OCO2 | > 30 | –
29 | COc1cc(/C=C/C(=O)N2C[C@H](Cc3cc(OC)c4c(c3)OCO4)N(C(C)=O)C[C@@H]2Cc2cc(OC)c3c(c2)OCO3)ccc1O | > 30 | –
30 | COc1cc([C@H]2c3cccnc3C(=O)N3C[C@H](C(=O)c4ccccc4)NC[C@H]23)cc2c1OCO2 | > 30 | –
31 | COc1cc([C@H]2c3ccccc3C(=O)N3C[C@H](C(=O)c4ccccc4)N(C(C)=O)C[C@H]23)cc(OC)c1O | > 30 | –
32 | C=C(c1ccccc1)[C@H]1CN2C(=O)c3ncccc3[C@H](c3cc(OC)c4c(c3)OCO4)[C@H]2CN1 | > 30 | –
33 | COc1cc([C@H]2c3ncccc3C(=O)N3C=CN(C(C)=O)C[C@H]23)cc2c1OCO2 | > 30 | –
34 | COc1cc(C[C@H]2CN3C(=O)/C(=C/c4ccc(O)cc4)[C@H](c4cc(OC)c5c(c4)OCO5)[C@H]3CN2C(C)=O)cc2c1OCO2 | > 30 | –
35 | COc1cc([C@H]2c3cnccc3C(=O)N3C[C@H](C(=O)c4ccccc4)N(C(C)=O)C[C@H]23)cc2c1OCO2 | > 30 | –
36 | COc1cc([C@H]2c3cccnc3C(=O)N3C[C@H](C(=O)c4ccccc4)N(C(C)=O)C[C@H]23)cc2c1OCO2 | > 30 | –
37 | CC(=O)N1C[C@H](Cc2cc(O)c3c(c2)OCO3)N(C(=O)c2ccccc2)C[C@@H]1Cc1ccccc1 | > 30 | –
38 | COc1cc([C@H]2c3ccncc3C(=O)N3C[C@H](Cc4ccccc4)N(C(C)=O)C[C@H]23)cc2c1OCO2 | > 30 | –
39 | COc1cc([C@H]2c3cccnc3C(=O)N3C[C@H](Cc4ccccc4)N(C(C)=O)C[C@H]23)cc2c1OCO2 | > 30 | –
40 | COc1cc(C[C@H]2CN(C(C)=O)[C@@H](Cc3ccccc3)CN2C(=O)c2ccccc2)cc(OC)c1O | > 30 | –
41 | COc1cc([C@H]2c3ccncc3C(=O)N3C=CN(C(C)=O)C[C@H]23)cc2c1OCO2 | > 30 | –
42 | COc1cc([C@H]2c3cnccc3C(=O)N3C[C@H](Cc4ccccc4)N(C(C)=O)C[C@H]23)cc2c1OCO2 | > 30 | –
43 | COc1cc([C@H]2c3cnccc3C(=O)N3C[C@@H](C(=O)c4ccccc4)NC[C@H]23)cc2c1OCO2 | > 30 | –
44 | COc1cc([C@H]2c3ccccc3C(=O)N3C=CN(C(C)=O)C[C@H]23)cc2c1OCO2 | > 30 | –
45 | C=C(c1ccccc1)[C@H]1CN2C(=O)c3ccncc3[C@H](c3cc(OC)c4c(c3)OCO4)[C@H]2CN1 | > 30 | –
46 | C=C(c1ccccc1)[C@H]1CN2C(=O)c3ccccc3[C@H](c3cc(OC)c4c(c3)OCO4)[C@H]2CN1 | > 30 | –
47 | COc1cc(C[C@H]2CN3C(=O)[C@@H]4[C@@H](c5ccccc5)c5c(cc6c(c5OC)OCO6)[C@@H]4[C@H]3CN2C(C)=O)cc2c1OCO2 | > 30 | Stability [5]: Stable
48 | COc1cc([C@H]2c3ccccc3C(=O)N3C[C@H](C(=O)c4ccccc4)NC[C@H]23)cc2c1OCO2 | > 30 | –
49 | COc1cc(C[C@H]2CN(C(C)=O)[C@@H](Cc3ccccc3)CN2)cc(OC)c1O | > 30 | –
50 | COc1cc([C@H]2/C(=C\c3ccc(O)cc3)C(=O)N3C[C@H](Cc4ccccc4)N(C(C)=O)C[C@H]23)cc2c1OCO2 | > 30 | –
51 | COc1cc(C[C@H]2CN(C(=O)/C=C/c3ccccc3)[C@@H](Cc3cc(OC)c4c(c3)OCO4)CN2C(C)=O)cc2c1OCO2 | > 30 | –
52 | COc1cc(C[C@H]2CN(C(C)=O)[C@@H](Cc3ccccc3)CN2C(=O)c2ccccn2)cc2c1OCO2 | > 30 | –
53 | COc1cc(C[C@H]2CN(C(=O)c3ccccc3)[C@@H](Cc3cc(OC)c4c(c3)OCO4)CN2C(C)=O)cc2c1OCO2 | > 30 | –
